{
  "source": "paper PMC7595425",
  "about": "(PLoS ONE, 2020)",
  "key": {"P-gp [1]": {"biological_target": "T1, P-gp (Homo sapiens, UniProt P08183)", "T1 sequence (P08183 whole entry)": "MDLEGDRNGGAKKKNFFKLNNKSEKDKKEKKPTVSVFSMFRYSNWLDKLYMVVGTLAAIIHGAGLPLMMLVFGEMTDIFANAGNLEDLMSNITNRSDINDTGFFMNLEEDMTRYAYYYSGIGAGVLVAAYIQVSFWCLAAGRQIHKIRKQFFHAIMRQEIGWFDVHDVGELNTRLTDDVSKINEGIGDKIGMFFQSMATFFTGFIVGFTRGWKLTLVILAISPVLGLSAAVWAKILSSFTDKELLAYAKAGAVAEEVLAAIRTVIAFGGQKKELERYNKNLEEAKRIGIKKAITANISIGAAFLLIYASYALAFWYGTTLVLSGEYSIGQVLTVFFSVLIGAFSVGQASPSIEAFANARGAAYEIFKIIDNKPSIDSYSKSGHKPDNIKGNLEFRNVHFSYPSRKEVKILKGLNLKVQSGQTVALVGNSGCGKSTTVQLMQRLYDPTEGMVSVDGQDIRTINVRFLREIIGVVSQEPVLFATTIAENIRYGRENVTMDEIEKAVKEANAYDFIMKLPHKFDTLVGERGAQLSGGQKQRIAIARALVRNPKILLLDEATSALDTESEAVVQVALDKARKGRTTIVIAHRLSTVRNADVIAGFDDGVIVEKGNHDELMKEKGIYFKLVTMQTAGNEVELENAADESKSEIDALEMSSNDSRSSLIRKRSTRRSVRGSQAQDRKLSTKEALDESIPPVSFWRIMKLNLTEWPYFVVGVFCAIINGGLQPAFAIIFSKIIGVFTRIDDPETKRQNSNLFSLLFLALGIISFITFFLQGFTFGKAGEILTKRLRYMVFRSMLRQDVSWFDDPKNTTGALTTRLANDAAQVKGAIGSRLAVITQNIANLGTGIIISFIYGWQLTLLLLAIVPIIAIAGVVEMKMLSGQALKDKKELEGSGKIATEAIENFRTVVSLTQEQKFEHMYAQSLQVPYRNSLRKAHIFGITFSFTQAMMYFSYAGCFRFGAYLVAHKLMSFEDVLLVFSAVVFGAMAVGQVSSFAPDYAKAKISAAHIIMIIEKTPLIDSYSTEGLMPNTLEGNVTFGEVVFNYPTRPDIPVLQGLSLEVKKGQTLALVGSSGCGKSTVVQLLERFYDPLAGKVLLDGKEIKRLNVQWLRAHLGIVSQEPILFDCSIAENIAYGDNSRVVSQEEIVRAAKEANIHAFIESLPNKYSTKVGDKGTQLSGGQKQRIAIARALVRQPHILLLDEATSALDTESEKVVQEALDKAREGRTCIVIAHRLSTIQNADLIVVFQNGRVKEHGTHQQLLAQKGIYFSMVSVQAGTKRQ", "experiment": "ATPase assay with P-gp-expressing membrane vesicles (SB-MDR1 […] ATPase Kit)", "type": "biochemical", "procedure": "The SB-MDR1 […] ATPase Kit, including P-gp-expressing membrane vesicles, was purchased from SOLVO Biotechnology (distributed by KAC Co., Ltd., Kyoto, Japan). This assay kit measures the interaction of test drugs with P-gp. ATPase assay was conducted according to the manufacturer’s instructions and a previous report. Inorganic phosphate liberated by ATP hydrolysis was detected by colorimetric reaction. The optical density (OD) was measured at 590 nm with a microplate reader, Sunrise™ Rainbow (TECAN, Kanagawa, Japan)."}, "[2]": {"details": "in combination with sertraline; cited from earlier work"}, "[3]": {"experiment": "Bidirectional assay across Caco-2 cell monolayers", "details": "human", "from_the_text": "Caco-2 cells (RRID:CVCL_0025), a human colon epithelial cancer cell line frequently used as an in vitro intestinal model, were purchased from the American Type Culture Collection (Rockville, MD, USA). […] The receiver side contained transport medium."}, "P-gp [4]": {"biological_target": "T1, P-gp", "experiment": "Efflux rate assay using P-gp-overexpressing LLC-GA5-CoL150 cells", "type": "in vitro ADME", "parameters": "host or cells: LLC-GA5-CoL150 (derivative of LLC-PK1 kidney epithelial cells)", "procedure": "Efflux assay with LLC-GA5-CoL150 cells was performed as previously described, with some modifications. […] The cells were incubated for 30 min at 4°C, washed twice with ice-cold D-PBS(-), and further incubated in Opti-MEM® for 10 min at 37°C. The cells were then washed three times with ice-cold D-PBS(-), dried, and lysed by adding 200 μL of 0.1 N NaOH solution. […] The efflux rate was calculated according to the following formula.\nEffluxrate(pmol/min/mgprotein)={Initialuptakeofpimozide(pmol/mgprotein)−Residualamountofpimozideafter10minincubation(pmol/mgprotein)}/10(min)\nProtein was determined colorimetrically using DCTM Protein Assay (BIO-RAD, Hercules, CA), based on absorbance measurement at 700 nm with a microplate reader, Sunrise Rainbow RC (Tecan, Kanagawa, Japan). An aliquot of cell lysate was mixed with 300 μL of ethyl acetate for 10 min in the cold, then 100 μL of the organic phase was taken and evaporated. The residue was dissolved in 300 μL of mobile phase. All samples were applied to MultiScreen® Solvent Filter Plates 0.45 μm Low-Binding Hydrophilic PTFE (Merck, Ireland) and centrifuged at 3,500 rpm for 20 min at 4°C.\nTo estimate the kinetic parameters of carrier-mediated transport in the efflux assays, the transport rate (J) was fitted to the following Eq (1), containing saturable and nonsaturable-linear terms, by using the nonlinear least-squares regression analysis program, MULTI, as previously reported. J=Jmax×[S]/(Kt+[S])+kd×[S] (1) Where Jmax is the maximum transport rate for the carrier-mediated transport, [S] is the substrate concentration, Kt is the half-saturation concentration, and kd is the first-order rate constant."}, "[5]": {"details": "pimozide 0.01 to 100 μM, mean ± S.D."}},
  "note": "Values joined by “and” are separate entries in the source; they are usually repeats but may differ in a detail not shown here. Equal entries are not always repeated.",
  "data": [
    {"smiles": "O=c1[nH]c2ccccc2n1C1CCN(CCCC(c2ccc(F)cc2)c2ccc(F)cc2)CC1", "note": "[Pimozide]", "values": [
      {"measurement": "P-gp substrate/inhibitor classification from ATPase assay", "setting": "P-gp [1]; ATPase activity increased concentration-dependently, reduced in the high concentration range", "value": "both a P-gp substrate and an inhibitor"},
      {"measurement": "pimozide concentration over which ATPase activity decreased", "setting": "P-gp [1]; concentration range 0.04 to 100 μM, concentration-dependent elevation at lower concentrations", "value": "about 10 μM"},
      {"measurement": "change of blood half-life of pimozide", "setting": "[2]", "value": "without any significant change"},
      {"measurement": "increase of AUC of pimozide", "setting": "[2]", "value": 37, "unit": "%"},
      {"measurement": "increase of Cmax of pimozide", "setting": "[2]", "value": 35, "unit": "%"},
      {"measurement": "Papp A→B at 120 min, 10 μM", "setting": "[3]", "value": "1.64 ± 0.14", "unit": "×10⁻⁶ cm/s"},
      {"measurement": "Papp B→A at 120 min, 10 μM", "setting": "[3]", "value": "0.35 ± 0.01", "unit": "×10⁻⁶ cm/s"},
      {"measurement": "Jmax/Kt (affinity for the transport carrier(s))", "setting": "P-gp [4]", "value": 8.0, "unit": "μL/min/mg protein"},
      {"measurement": "Jmax (maximum transport rate for the carrier-mediated transport)", "setting": "P-gp [4]; [5]", "value": "84.9 ± 8.9", "unit": "pmol/min/mg protein"},
      {"measurement": "Kt (half-saturation concentration)", "setting": "P-gp [4]; [5]", "value": "10.6 ± 4.7 µM and 10.6 µM"}
    ]}
  ]
}
